Legend:
p53 = p53 protein level (stabilization) by immunoblot in cotransfected COS7 cells; assay type: cell-based; conditions: COS7 cotransfection (FIG. 14, 15)
Description: (§1) Cells were transiently transfected with a total of 2 μg of expression plasmids. After 48 hours of the transfection, the cells were washed with ice-cold PBS and suspended in lysis buffer (pH 8.0; which contained 25 mM Tris-Cl, 137 mM sodium chloride, 1% Triton X-100, 1 mM phenylmethylsulfonyl fluoride (PMSF), and protease inhibitor mix (Roche Molecular Biochemicals)), followed by brief sonication. After centrifugation at 15000 rpm for 10 minutes, the supernatant was collected and assayed for protein concentrations by the Bradford assay (Bio-Rad). Equal amounts of lysates (protein amount: 50 μg) from the whole cells were denatured by boiling in Laemmli SDS-sample buffer, then separated on 10% SDS-polyacrylamide gel (SDS-PAGE), and transferred at room temperature for 1 hour to polyvinylidene difluoride (PVDF) membranes (Immobilon-P; Millipore) in Tris-glycine buffer containing 10% methanol. The membranes were blocked at room temperature for 1 hour with Tris-buffered saline (TBS-T) containing 5% skim milk and 0.1% Tween 20.
As previously reported, some protein kinases (e.g., c-Abl and PKCδ) that interact with p73 can stabilize p73. To confirm whether IKK-α influenced the stabilization of p73, COS7 cells were transfected with a constant amount of HA-p73α expression plasmid together with or without varying amounts of IKK-α expression plasmids and examined for HA-p73α protein levels. […]

p73 [1] = target: T1, p73 (Homo sapiens, UniProt O15350); assay: p73 protein level (stabilization) by immunoblot in cotransfected COS7 cells; assay type: cell-based; conditions: COS7 cotransfection (FIG. 14, 15, 29)
T1 construct: expressed in transfected cells; host or cells: COS7
T1 sequence (O15350 1-636): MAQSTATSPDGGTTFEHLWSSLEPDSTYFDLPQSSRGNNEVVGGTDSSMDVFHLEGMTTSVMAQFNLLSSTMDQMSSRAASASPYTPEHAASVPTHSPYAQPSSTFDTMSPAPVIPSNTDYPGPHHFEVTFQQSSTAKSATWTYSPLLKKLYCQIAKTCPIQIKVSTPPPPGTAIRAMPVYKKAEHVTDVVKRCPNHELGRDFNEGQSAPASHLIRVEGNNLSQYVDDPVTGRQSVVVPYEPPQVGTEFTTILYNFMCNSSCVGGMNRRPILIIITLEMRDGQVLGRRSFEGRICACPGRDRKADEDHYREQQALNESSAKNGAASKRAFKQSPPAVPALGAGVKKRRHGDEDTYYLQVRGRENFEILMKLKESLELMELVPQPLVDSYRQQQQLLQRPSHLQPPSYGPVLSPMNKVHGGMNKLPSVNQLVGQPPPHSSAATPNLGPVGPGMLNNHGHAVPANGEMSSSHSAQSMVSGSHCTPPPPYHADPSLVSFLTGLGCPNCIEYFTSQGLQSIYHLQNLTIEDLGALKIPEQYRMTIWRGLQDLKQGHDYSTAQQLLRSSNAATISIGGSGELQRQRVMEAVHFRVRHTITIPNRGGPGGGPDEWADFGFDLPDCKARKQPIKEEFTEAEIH
Description: as §1
As previously reported, some protein kinases (e.g., c-Abl and PKCδ) that interact with p73 can stabilize p73. To confirm whether IKK-α influenced the stabilization of p73, COS7 cells were transfected with a constant amount of HA-p73α expression plasmid together with or without varying amounts of IKK-α expression plasmids and examined for HA-p73α protein levels. […] Next, whether IKK-β influenced the stabilization of p73 and p53 was investigated by transient transfection.

p73 [2] = assay: Luciferase reporter assay, p73-dependent transcriptional activation in H1299 cells; assay type: cell-based, human; conditions: H1299, coexpression with HA-p73α or HA-p73β (FIG. 20, 21, 23)
Description: H1299 cells deficient in p53 were seeded at a density of 5×10^4 cells/well onto a 12-well tissue culture dish and transiently transfected with 100 ng of luciferase reporter construct (which carried a p53/p73-responsive element derived from a p21^WAF1, Bax, or MDM2 promoter), 10 ng of pRL-TK Renilla luciferase cDNA, and 25 ng of given expression plasmid (p53, HA-p73α, or HA-p73β) together with or without varying amounts of IKK-α or FLAG-IKK-β expression plasmids. The total amount of DNA per transfection was kept constant (510 ng) with a pcDNA3 empty plasmid. After 48 hours from the transfection, the cells were washed twice with ice-cold PBS and suspended in passive lysis buffer (Promega). Both firefly and Renilla luciferase activities were assayed by use of dual-luciferase reporter assay system (Promega) according to the instruction. […] intensity was measured with TD-20 luminometer (Turner Design). The firefly luciferase signal was normalized based on the Renilla luciferase signal. Results obtained from at least 3 transfections were indicated by mean value±standard deviation.
To explore the functional implication of interaction between IKK-α and p73, the effect of IKK-α on p73-mediated transcriptional activation was first examined. H1299 cells deficient in p53 were transfected with a HA-p73α or HA-p73β expression plasmid and a luciferase reporter construct under the control of a p21^WAF1, Bax, or MDM2 promoter together with or without varying amounts of IKK-α expression plasmids. […] By contrast, increase in p53-responsive reporter gene activity was not induced by IKK-α (FIG. 22). To examine the specificity of p73-dependent transcriptional activation mediated by IKK-α, whether IKK-β enhanced p73 transcriptional activity to p53/p73-responsive promoters was confirmed.

HA-p73α = target: T2, HA-p73α (Homo sapiens, UniProt O15350); assay: Ubiquitination assay in COS7 cells; assay type: cell-based; conditions: COS7, HA-p73α and HA-ubiquitin, MG-132 (FIG. 18, 19)
T2 construct: expressed in transfected cells; host or cells: COS7
T2 sequence (O15350 1-636): T1 sequence (O15350 1-636)
Description: COS7 cells were transiently transfected with a constant amount of expression plasmids encoding HA-p73α and HA-Ub in the presence or absence of varying amounts of IKK-α expression plasmids. After […] from the transfection, the cells were exposed for 6 hours to a proteasome inhibitor MG-132 (final concentration: 20 μM), and lysates from the whole cells were first subjected to immunoprecipitation with an anti-p73 monoclonal antibody and then to immunoblot using an anti-HA monoclonal antibody (12CA5; Roche Molecular Biochemicals) to analyze ubiquitination levels.
As described by Lee, C.-W. et al., Oncogene 18: 4171-4181 (1999), the steady-state level of p73 was regulated at least partially by the proteolytic process through the ubiquitin-proteasome pathway. Whether IKK-α inhibited the ubiquitination of p73 was investigated. COS7 cells were transfected with expression plasmids for HA-p73α and HA-ubiquitin together with or without varying amounts of IKK-α or FLAG-IKK-β expression plasmids. After 48 hours of the transfection, lysates from the whole cells were analyzed by immunoprecipitation and immunoblot and examined for the presence of p73α containing HA-ubiquitin.

H1299 cells = assay: Apoptosis assay (trypan blue / Red-Gal double staining), p73α-dependent; assay type: cell-based, human; conditions: H1299, coexpression with HA-p73α, 48 hours (FIG. 25-27)
Description: To detect apoptosis via p73α and IKK overexpression, H1299 cells were seeded at a density of 1.5×10^4 cells/well onto a 6-well tissue culture dish. Next day, the cells were transiently transfected with 50 ng of β-galactosidase expression plasmid and 50 ng of HA-p73α expression plasmid in the presence or absence of varying amounts of IKK-α or IKK-β expression vectors (100, 200, or 400 ng). After 48 hours of the transfection, the cells were washed with ice-cold PBS and stained at room temperature for 10 minutes with 0.4% trypan blue (PBS solution). Then, the cells were washed twice with PBS, then fixed for 10 minutes in PBS containing 2.5% glutaraldehyde, 1 mM magnesium chloride, and 2 mM EGTA, and stained for 2 hours with Red-Gal (Research Organics) according to the method described in Bayon, Y. et al., Mol. Cell. Biol. 23: 1061-1074 (2003). Red-Gal was used as a marker for visualizing the transfected cells to evaluate the degree of apoptosis occurring in the transfectants. […] Results were indicated by an average of three independent transfections (each performed three times or more).
Potential effect(s) of IKK-α on p73-dependent biological functions such as the regulation of apoptosis was examined. […] After 48 hours of the transfection, the cells were subjected to double staining with trypan blue (nonviable cells) and Red-Gal (transfected cells), and the number of purple cells was scored.

## FLAG-IKK-β: IκB kinase catalytic subunit IKK-β (IKK-2), FLAG-tagged, expressed from plasmid as comparison
p53
  stabilization of p53: no detectable effect on the stabilization of both p73 and p53
p73 [1]
  amount of HA-p73α: no detectable effect on the stabilization of both p73 and p53
p73 [2]
  p73-dependent transcriptional activation of p21WAF1, Bax, MDM2 promoter reporters: no remarkable change in p73-dependent transcriptional activation
HA-p73α
  amount of ubiquitinated p73α: inhibited the ubiquitination of p73α to a somewhat lesser degree
H1299 cells
  number of cells undergoing p73α-dependent apoptosis: no remarkable effect on p73α-dependent apoptosis
